In ChEMBL document CHEMBL4507317, “Data for DCP probe BAY-899” (2021):

What was measured:
[1] = target: Casein kinase I isoform gamma-1 (Homo sapiens) (UniProt Q9HCP0); conditions: Compound concentration 1000.0 nM
[2] = target: Wee1-like protein kinase (Homo sapiens) (UniProt P30291); conditions: Compound concentration 1000.0 nM
[3] = target: Tyrosine-protein kinase Blk (Homo sapiens) (UniProt P51451); conditions: Compound concentration 1000.0 nM
[4] = target: Homeodomain-interacting protein kinase 1 (Homo sapiens) (UniProt Q86Z02); conditions: Compound concentration 1000.0 nM
[5] = target: Serine/threonine-protein kinase RIO2 (Homo sapiens) (UniProt Q9BVS4); conditions: Compound concentration 1000.0 nM
[6] = target: Serine/threonine-protein kinase D2 (Homo sapiens) (UniProt Q9BZL6); conditions: Compound concentration 1000.0 nM
[7] = target: cGMP-dependent protein kinase 2 (Homo sapiens) (UniProt Q13237); conditions: Compound concentration 1000.0 nM
[8] = target: Serine/threonine-protein kinase SBK1 (Homo sapiens) (UniProt Q52WX2); conditions: Compound concentration 1000.0 nM
[9] = target: Phosphatidylinositol 4-phosphate 5-kinase type-1 gamma (Homo sapiens) (UniProt O60331); conditions: Compound concentration 1000.0 nM
[10] = target: Cyclin-dependent kinase 15 (Homo sapiens) (UniProt Q96Q40); conditions: Compound concentration 1000.0 nM
[11] = target: Serine/threonine-protein kinase WNK4 (Homo sapiens) (UniProt Q96J92); conditions: Compound concentration 1000.0 nM
[12] = target: Ribosomal protein S6 kinase alpha-5 (Homo sapiens) (UniProt O75582); conditions: Compound concentration 1000.0 nM
[13] = target: Tyrosine-protein kinase JAK1 (Homo sapiens) (UniProt P23458); conditions: Compound concentration 1000.0 nM
[14] = target: Membrane-associated tyrosine- and threonine-specific cdc2-inhibitory kinase (Homo sapiens) (UniProt Q99640); conditions: Compound concentration 1000.0 nM
[15] = target: Myosin light chain kinase, smooth muscle (Homo sapiens) (UniProt Q15746); conditions: Compound concentration 1000.0 nM
[16] = target: Mitogen-activated protein kinase 14 (Homo sapiens) (UniProt Q16539); conditions: Compound concentration 1000.0 nM
[17] = target: Mitogen-activated protein kinase kinase kinase 6 (Homo sapiens) (UniProt O95382); conditions: Compound concentration 1000.0 nM
[18] = target: Mitogen-activated protein kinase kinase kinase kinase 3 (Homo sapiens) (UniProt Q8IVH8); conditions: Compound concentration 1000.0 nM
[19] = target: Serine/threonine-protein kinase MARK1 (Homo sapiens) (UniProt Q9P0L2); conditions: Compound concentration 1000.0 nM
[20] = system: Serine/threonine-protein kinase B-raf (Homo sapiens), P15056 [V600E]; conditions: Compound concentration 1000.0 nM
[21] = target: Mitogen-activated protein kinase 15 (Homo sapiens) (UniProt Q8TD08); conditions: Compound concentration 1000.0 nM
[22] = target: Dual specificity mitogen-activated protein kinase kinase 2 (Homo sapiens) (UniProt P36507); conditions: Compound concentration 1000.0 nM
[23] = target: Serine/threonine-protein kinase Nek10 (Homo sapiens) (UniProt Q6ZWH5); conditions: Compound concentration 1000.0 nM
[24] = target: Serine/threonine-protein kinase TAO1 (Homo sapiens) (UniProt Q7L7X3); conditions: Compound concentration 1000.0 nM
[25] = target: Ephrin type-A receptor 4 (Homo sapiens) (UniProt P54764); conditions: Compound concentration 1000.0 nM
[26] = target: Platelet-derived growth factor receptor beta (Homo sapiens) (UniProt P09619); conditions: Compound concentration 1000.0 nM
[27] = target: Tyrosine-protein kinase ABL2 (Homo sapiens) (UniProt P42684); conditions: Compound concentration 1000.0 nM
[28] = system: Receptor-type tyrosine-protein kinase FLT3 (Homo sapiens), P36888 [D835V]; conditions: Compound concentration 1000.0 nM
[29] = target: Cyclin-dependent kinase 4 (Homo sapiens) (UniProt P11802); conditions: Compound concentration 1000.0 nM
[30] = target: Serine/threonine-protein kinase NLK (Homo sapiens) (UniProt Q9UBE8); conditions: Compound concentration 1000.0 nM
[31] = target: Serine/threonine-protein kinase mTOR (Homo sapiens) (UniProt P42345); conditions: Compound concentration 1000.0 nM
[32] = target: Serine/threonine-protein kinase Sgk3 (Homo sapiens) (UniProt Q96BR1); conditions: Compound concentration 1000.0 nM
[33] = target: Tyrosine-protein kinase CSK (Homo sapiens) (UniProt P41240); conditions: Compound concentration 1000.0 nM
[34] = system: Hepatocyte growth factor receptor (Homo sapiens), P08581 [Y1235D]; conditions: Compound concentration 1000.0 nM
[35] = target: D(1A) dopamine receptor (Homo sapiens) (UniProt P21728); conditions: Compound concentration 10.0 uM
[36] = system: Mast/stem cell growth factor receptor Kit (Homo sapiens), P10721 [V559D]; conditions: Compound concentration 1000.0 nM
[37] = target: Phosphatidylinositol 4,5-bisphosphate 3-kinase catalytic subunit gamma isoform (Homo sapiens) (UniProt P48736); conditions: Compound concentration 1000.0 nM
[38] = target: Ribosomal protein S6 kinase alpha-1 (Homo sapiens) (UniProt Q15418); conditions: Compound concentration 1000.0 nM
[39] = target: T1, Muscarinic acetylcholine receptor M1 (Homo sapiens) (UniProt P11229); conditions: Compound concentration 10.0 uM
T1 sequence (whole entry): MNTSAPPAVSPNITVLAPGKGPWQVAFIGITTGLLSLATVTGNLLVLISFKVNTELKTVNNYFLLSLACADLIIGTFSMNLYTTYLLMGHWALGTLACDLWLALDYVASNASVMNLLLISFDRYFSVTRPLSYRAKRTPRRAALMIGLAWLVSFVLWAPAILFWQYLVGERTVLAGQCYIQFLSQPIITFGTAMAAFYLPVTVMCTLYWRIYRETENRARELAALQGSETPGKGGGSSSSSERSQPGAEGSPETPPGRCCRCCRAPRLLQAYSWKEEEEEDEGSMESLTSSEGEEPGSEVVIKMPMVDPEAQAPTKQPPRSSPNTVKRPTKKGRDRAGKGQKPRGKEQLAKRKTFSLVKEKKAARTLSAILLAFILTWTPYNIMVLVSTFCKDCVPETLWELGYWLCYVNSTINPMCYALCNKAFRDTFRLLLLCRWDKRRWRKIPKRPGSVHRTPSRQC

Sequence of Ribosomal protein S6 kinase alpha-1 (Homo sapiens) (Q15418 whole entry): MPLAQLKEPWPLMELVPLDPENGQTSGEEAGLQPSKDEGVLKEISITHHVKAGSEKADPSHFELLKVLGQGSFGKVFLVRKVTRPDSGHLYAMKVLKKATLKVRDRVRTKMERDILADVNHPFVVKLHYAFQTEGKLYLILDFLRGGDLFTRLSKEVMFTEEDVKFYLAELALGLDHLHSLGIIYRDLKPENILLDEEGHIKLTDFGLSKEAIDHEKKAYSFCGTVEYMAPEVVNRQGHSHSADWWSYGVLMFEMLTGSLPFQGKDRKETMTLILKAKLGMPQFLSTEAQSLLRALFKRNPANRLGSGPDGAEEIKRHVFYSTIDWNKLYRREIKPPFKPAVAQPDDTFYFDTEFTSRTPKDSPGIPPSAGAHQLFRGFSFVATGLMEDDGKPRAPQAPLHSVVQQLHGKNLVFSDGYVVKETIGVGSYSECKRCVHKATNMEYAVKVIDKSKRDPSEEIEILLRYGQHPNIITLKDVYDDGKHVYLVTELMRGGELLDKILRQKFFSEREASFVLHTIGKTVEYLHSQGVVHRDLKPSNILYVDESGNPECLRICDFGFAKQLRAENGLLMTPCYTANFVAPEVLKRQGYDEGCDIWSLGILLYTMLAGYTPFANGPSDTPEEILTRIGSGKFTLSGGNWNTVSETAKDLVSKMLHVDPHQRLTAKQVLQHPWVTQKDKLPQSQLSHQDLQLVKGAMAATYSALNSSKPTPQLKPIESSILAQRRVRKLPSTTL
Sequence of Serine/threonine-protein kinase RIO2 (Homo sapiens) (Q9BVS4 whole entry, looked up): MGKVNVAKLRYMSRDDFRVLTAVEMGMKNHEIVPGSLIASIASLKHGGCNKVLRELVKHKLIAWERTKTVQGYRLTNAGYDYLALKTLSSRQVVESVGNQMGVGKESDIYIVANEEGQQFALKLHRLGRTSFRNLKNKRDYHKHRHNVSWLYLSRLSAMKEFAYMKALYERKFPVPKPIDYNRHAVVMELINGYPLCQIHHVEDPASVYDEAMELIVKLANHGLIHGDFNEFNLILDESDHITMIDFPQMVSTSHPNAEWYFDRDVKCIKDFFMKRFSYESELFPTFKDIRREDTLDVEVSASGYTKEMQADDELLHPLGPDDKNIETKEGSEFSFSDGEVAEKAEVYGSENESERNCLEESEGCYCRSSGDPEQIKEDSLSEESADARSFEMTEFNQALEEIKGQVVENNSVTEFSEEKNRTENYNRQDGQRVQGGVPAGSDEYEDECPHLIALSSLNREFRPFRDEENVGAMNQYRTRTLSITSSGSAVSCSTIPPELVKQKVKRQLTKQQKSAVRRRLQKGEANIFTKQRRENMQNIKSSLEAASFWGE
Sequence of cGMP-dependent protein kinase 2 (Homo sapiens) (Q13237 whole entry): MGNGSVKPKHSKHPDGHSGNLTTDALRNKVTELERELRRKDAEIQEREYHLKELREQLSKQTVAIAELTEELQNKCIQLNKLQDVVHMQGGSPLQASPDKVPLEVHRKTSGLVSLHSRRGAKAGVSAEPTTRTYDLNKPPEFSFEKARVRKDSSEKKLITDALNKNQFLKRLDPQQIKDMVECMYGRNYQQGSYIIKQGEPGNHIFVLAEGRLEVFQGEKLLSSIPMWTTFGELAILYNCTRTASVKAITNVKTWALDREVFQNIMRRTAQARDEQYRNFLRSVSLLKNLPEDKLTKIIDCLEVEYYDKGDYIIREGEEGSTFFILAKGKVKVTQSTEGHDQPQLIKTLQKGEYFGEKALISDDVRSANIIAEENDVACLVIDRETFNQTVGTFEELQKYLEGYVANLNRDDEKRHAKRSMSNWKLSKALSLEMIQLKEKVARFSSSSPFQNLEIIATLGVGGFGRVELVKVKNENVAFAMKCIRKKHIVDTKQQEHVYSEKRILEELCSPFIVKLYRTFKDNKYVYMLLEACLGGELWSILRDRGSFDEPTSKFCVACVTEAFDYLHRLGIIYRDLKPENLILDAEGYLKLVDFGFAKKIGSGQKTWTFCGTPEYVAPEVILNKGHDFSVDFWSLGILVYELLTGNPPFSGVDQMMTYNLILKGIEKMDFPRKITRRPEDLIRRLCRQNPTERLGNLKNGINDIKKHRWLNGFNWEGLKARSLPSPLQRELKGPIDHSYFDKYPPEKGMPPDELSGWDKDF
Sequence of Phosphatidylinositol 4-phosphate 5-kinase type-1 gamma (Homo sapiens) (O60331 whole entry): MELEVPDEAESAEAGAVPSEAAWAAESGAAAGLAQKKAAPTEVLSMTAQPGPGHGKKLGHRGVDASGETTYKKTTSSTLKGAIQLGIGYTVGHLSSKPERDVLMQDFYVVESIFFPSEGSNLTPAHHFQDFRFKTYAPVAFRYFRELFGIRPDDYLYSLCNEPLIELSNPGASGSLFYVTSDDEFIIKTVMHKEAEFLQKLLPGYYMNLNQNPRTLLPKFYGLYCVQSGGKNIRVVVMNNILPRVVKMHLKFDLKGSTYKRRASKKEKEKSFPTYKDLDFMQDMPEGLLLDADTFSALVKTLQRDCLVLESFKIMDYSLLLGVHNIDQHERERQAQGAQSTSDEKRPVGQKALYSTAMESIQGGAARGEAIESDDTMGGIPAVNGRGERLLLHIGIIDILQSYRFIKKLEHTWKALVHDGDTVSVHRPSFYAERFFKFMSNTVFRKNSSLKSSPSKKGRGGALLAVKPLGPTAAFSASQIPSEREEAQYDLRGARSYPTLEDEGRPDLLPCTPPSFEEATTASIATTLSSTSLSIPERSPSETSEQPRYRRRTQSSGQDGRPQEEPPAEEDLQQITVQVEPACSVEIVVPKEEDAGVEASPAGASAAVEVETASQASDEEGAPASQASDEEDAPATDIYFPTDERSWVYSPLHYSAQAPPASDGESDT
Sequence of Serine/threonine-protein kinase Sgk3 (Homo sapiens) (Q96BR1 whole entry): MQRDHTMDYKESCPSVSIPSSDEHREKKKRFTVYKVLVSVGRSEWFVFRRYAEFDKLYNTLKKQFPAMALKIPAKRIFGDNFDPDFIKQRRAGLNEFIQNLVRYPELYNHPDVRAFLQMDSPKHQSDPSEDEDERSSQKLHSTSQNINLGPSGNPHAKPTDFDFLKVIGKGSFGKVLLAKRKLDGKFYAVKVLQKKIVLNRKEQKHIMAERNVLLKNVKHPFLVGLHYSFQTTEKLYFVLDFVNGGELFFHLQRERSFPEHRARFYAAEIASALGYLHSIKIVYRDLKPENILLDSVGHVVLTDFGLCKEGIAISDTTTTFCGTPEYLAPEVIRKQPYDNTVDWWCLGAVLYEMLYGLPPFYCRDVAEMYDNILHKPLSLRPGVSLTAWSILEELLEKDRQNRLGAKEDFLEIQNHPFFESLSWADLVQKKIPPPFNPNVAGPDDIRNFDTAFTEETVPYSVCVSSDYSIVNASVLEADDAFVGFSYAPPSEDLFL
Sequence of Serine/threonine-protein kinase NLK (Homo sapiens) (Q9UBE8 whole entry): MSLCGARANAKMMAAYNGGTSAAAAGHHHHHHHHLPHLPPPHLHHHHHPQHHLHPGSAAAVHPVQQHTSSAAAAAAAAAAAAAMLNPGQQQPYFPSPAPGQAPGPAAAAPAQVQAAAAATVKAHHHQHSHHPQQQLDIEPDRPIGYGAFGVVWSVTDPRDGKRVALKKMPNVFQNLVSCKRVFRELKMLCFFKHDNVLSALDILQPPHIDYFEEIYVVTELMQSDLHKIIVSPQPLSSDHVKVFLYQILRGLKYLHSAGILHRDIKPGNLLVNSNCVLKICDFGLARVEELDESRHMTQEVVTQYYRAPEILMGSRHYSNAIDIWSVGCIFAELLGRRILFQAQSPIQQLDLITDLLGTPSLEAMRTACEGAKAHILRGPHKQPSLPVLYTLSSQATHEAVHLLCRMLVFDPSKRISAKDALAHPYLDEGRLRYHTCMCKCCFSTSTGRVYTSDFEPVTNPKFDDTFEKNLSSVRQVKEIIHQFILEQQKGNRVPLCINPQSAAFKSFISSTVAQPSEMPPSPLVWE
Sequence of Tyrosine-protein kinase ABL2 (Homo sapiens) (P42684 whole entry): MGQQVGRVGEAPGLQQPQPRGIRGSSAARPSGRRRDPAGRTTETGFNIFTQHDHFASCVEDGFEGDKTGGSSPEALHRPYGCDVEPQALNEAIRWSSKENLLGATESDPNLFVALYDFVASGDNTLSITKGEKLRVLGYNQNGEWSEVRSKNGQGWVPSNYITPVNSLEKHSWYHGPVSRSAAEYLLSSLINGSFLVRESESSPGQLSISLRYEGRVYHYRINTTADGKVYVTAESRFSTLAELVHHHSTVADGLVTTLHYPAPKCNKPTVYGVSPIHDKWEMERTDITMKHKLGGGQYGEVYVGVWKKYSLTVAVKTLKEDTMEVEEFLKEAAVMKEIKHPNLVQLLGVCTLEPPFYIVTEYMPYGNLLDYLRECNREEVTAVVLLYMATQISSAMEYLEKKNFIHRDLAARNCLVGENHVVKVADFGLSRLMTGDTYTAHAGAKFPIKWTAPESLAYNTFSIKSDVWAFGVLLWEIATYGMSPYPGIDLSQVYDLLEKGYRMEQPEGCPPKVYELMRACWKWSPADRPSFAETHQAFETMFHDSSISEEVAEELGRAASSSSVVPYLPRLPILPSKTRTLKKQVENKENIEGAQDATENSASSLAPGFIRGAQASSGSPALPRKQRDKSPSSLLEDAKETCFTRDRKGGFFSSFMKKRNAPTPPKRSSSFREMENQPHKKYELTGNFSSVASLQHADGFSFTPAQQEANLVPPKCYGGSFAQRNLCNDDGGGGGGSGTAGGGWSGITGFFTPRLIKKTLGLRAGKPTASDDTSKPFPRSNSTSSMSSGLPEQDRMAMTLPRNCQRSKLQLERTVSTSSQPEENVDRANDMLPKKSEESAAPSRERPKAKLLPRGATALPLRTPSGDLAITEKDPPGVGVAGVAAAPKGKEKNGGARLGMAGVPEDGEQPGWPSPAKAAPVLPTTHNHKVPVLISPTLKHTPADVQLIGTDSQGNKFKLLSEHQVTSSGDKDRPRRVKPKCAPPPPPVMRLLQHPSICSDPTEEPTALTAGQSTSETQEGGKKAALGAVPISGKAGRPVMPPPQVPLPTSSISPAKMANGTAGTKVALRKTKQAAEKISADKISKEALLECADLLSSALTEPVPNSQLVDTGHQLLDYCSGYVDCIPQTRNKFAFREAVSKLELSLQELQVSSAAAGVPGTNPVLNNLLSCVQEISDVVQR

O=C(Nc1ccc(Oc2ccc(F)cc2)cc1)N1CCc2ncccc2[C@H]1c1ccc(F)cc1 [BAY-897]
inactive: residual activity [1] 90% | residual activity [2] 100% | residual activity [3] 90% | residual activity [4] 96% | residual activity [5] 94% | residual activity [6] 100% | residual activity [7] 100% | residual activity [8] 89% | residual activity [9] 96% | residual activity [10] 86% | residual activity [11] 85% | residual activity [12] 95% | residual activity [13] 94% | residual activity [14] 63% | residual activity [15] 100% | residual activity [16] 100% | residual activity [17] 100% | residual activity [18] 90% | residual activity [19] 81% | residual activity [20] 93% | residual activity [21] 94% | residual activity [22] 100% | residual activity [23] 100% | residual activity [24] 100% | residual activity [25] 100% | residual activity [26] 100% | residual activity [27] 88% | residual activity [28] 96% | residual activity [29] 100% | residual activity [30] 87% | residual activity [31] 100% | residual activity [32] 97% | residual activity [33] 100% | residual activity [34] 86% | inhibition [35] 39.1% | residual activity [36] 100% | residual activity [37] 87% | residual activity [38] 92% | inhibition [39] -2.98%

O=C(Nc1cnc(Oc2ccc(F)cc2)nc1)N1CCc2ncccc2[C@@H]1c1ccc(F)cc1 [BAY-899]
inactive: residual activity [1] 99% | residual activity [2] 85% | residual activity [3] 80% | residual activity [4] 70% | residual activity [5] 96% | residual activity [6] 85% | residual activity [7] 100% | residual activity [8] 100% | residual activity [9] 100% | residual activity [10] 93% | residual activity [11] 81% | residual activity [12] 85% | residual activity [13] 86% | residual activity [14] 80% | residual activity [15] 100% | residual activity [16] 79% | residual activity [17] 94% | residual activity [18] 87% | residual activity [19] 71% | residual activity [20] 83% | residual activity [21] 93% | residual activity [22] 93% | residual activity [23] 100% | residual activity [24] 100% | residual activity [25] 88% | residual activity [26] 100% | residual activity [27] 78% | residual activity [28] 100% | residual activity [29] 100% | residual activity [30] 73% | residual activity [31] 100% | residual activity [32] 100% | residual activity [33] 100% | residual activity [34] 93% | inhibition [35] 23.7% | residual activity [36] 100% | residual activity [37] 85% | residual activity [38] 76% | inhibition [39] 7.56%
